# PubChem BioAssay AID224 (DTP/NCI, 2004)
# Where “and” joins values, the source holds several entries; their conditions need not be identical. Equal values may be shown once. Toxic doses and inconclusive results are not listed.
# Tested on: P335 leukemia ip, BDF1 mice, survival T/C %
# Assay: NCI In Vivo Anticancer Drug Screen. Data for tumor model P335 Leukemia (intraperitoneal) in B6D2F1 (BDF1) mice
# Details: endpoint: mean survival time, higher = longer survival
# Description: The antitumor activity of compounds was measured in mice bearing transplantable tumors. Survival or tumor size were measured and the results are expressed as the measurement made in the treated group (T) divided by the measurement made in the vehicle treated control group (C). The tumor model used in this assay is P335 Leukemia (intraperitoneal) in B6D2F1 (BDF1) mice
# [1] = dose: 16.0 mg/kg/injection, schedule: Q01DX Z (ip), vehicle: carboxymethylcellulose (CMC)
# [2] = dose: 31.0 mg/kg/injection, schedule: Q01DX Z (ip), vehicle: carboxymethylcellulose (CMC)
# [3] = dose: 62.5 mg/kg/injection, schedule: Q01DX Z (ip), vehicle: carboxymethylcellulose (CMC)
# [4] = dose: 125.0 mg/kg/injection, schedule: Q01DX Z (ip), vehicle: carboxymethylcellulose (CMC)
# [5] = dose: 10.0 mg/kg/injection, schedule: Q01DX Z (ip), vehicle: carboxymethylcellulose (CMC)
# [6] = dose: 20.0 mg/kg/injection, schedule: Q01DX Z (ip), vehicle: carboxymethylcellulose (CMC)
# [7] = dose: 6.2 mg/kg/injection, schedule: Q01DX Z (ip), vehicle: water
# [8] = dose: 8.0 mg/kg/injection, schedule: Q01DX Z (ip), vehicle: carboxymethylcellulose (CMC)
# [9] = dose: 16.0 mg/kg/injection, schedule: Q01DX Z (sc), vehicle: steriod suspending solution
# [10] = dose: 31.0 mg/kg/injection, schedule: Q01DX Z (sc), vehicle: steriod suspending solution
# [11] = dose: 62.5 mg/kg/injection, schedule: Q01DX Z (sc), vehicle: steriod suspending solution
# [12] = dose: 125.0 mg/kg/injection, schedule: Q01DX Z (sc), vehicle: steriod suspending solution
# [13] = dose: 250.0 mg/kg/injection, schedule: Q01DX Z (sc), vehicle: steriod suspending solution
# [14] = dose: 500.0 mg/kg/injection, schedule: Q01DX Z (sc), vehicle: steriod suspending solution
# [15] = dose: 4.0 mg/kg/injection, schedule: Q01DX Z (ip), vehicle: carboxymethylcellulose (CMC)
# [16] = dose: 31.25 mg/kg/injection, schedule: Q01DX Z (ip), vehicle: carboxymethylcellulose (CMC)
# [17] = dose: 6.25 mg/kg/injection, schedule: Q01DX Z (ip), vehicle: carboxymethylcellulose (CMC)
# [18] = dose: 25.0 mg/kg/injection, schedule: Q01DX Z (ip), vehicle: water
compound,measurement,setting,value
O=CCC(O)C(O)C(O)CO (stereo not given),T/C,"dose: 0.8 mg/kg/injection, schedule: Q01DX Z (ip), vehicle: carboxymethylcellulose (CMC)",104 % of control
same,T/C,[1],100 % of control
same,T/C,[2],93 % of control
same,T/C,[3],114 % of control
same,T/C,[4],104 % of control
CC(CCC(C)OS(C)(=O)=O)OS(C)(=O)=O (stereo not given),T/C,"dose: 5.0 mg/kg/injection, schedule: Q01DX Z (ip), vehicle: carboxymethylcellulose (CMC)",88 % of control
same,T/C,[5],90 % of control
same,T/C,[6],87 % of control
CN(C)c1ccc(/C=C\c2ccnc3ccccc23)cc1,T/C,"dose: 0.8 mg/kg/injection, schedule: Q01DX Z (ip), vehicle: water",100 % of control
same,T/C,"dose: 1.6 mg/kg/injection, schedule: Q01DX Z (ip), vehicle: water",98 % of control
same,T/C,"dose: 3.1 mg/kg/injection, schedule: Q01DX Z (ip), vehicle: water",102 % of control
same,T/C,[7],109 % of control
CC1CCOS(=O)O1 (stereo not given),T/C,[5],91 % of control
same,T/C,[6],113 % of control
same,T/C,"dose: 40.0 mg/kg/injection, schedule: Q01DX Z (ip), vehicle: carboxymethylcellulose (CMC)",117 % of control
same,T/C,"dose: 80.0 mg/kg/injection, schedule: Q01DX Z (ip), vehicle: carboxymethylcellulose (CMC)",107 % of control
NC(N)=Nc1nc2ccccc2o1,T/C,"dose: 2.0 mg/kg/injection, schedule: Q01DX Z (ip), vehicle: carboxymethylcellulose (CMC)",92 % of control
same,T/C,[8],90 % of control
same,T/C,[1],90 % of control
same,T/C,[2],94 % of control
same,T/C,"dose: 63.0 mg/kg/injection, schedule: Q01DX Z (ip), vehicle: carboxymethylcellulose (CMC)",94 % of control
same,T/C,[4],86 % of control
CN(Cc1cnc2nc(N)nc(N)c2n1)c1c(Cl)cc(C(=O)NC(CCC(=O)O)C(=O)O)cc1Cl (stereo not given),T/C,"dose: 25.0 mg/kg/injection, schedule: Q01DX Z (ip), vehicle: carboxymethylcellulose (CMC)",104 % of control and 121 % of control
C[C@]12CCC(=O)C=C1CC[C@@H]1[C@@H]2CC[C@@]2(C)[C@H]1CC[C@]2(C)O,T/C,"dose: 0.5 mg/kg/injection, schedule: Q01DX Z (sc), vehicle: steriod suspending solution",117 % of control
same,T/C,"dose: 1.0 mg/kg/injection, schedule: Q01DX Z (sc), vehicle: steriod suspending solution",96 % of control
same,T/C,"dose: 2.0 mg/kg/injection, schedule: Q01DX Z (sc), vehicle: steriod suspending solution",121 % of control
same,T/C,"dose: 4.0 mg/kg/injection, schedule: Q01DX Z (sc), vehicle: steriod suspending solution",116 % of control
same,T/C,"dose: 8.0 mg/kg/injection, schedule: Q01DX Z (sc), vehicle: steriod suspending solution",118 % of control
same,T/C,[9],116 % of control
same,T/C,[10],116 % of control
same,T/C,[11],106 % of control and 111 % of control
same,T/C,[12],106 % of control
same,T/C,[13],109 % of control
same,T/C,[14],100 % of control
S=P(N1CC1)(N1CC1)N1CC1,T/C,"dose: 0.37 mg/kg/injection, schedule: Q01DX Z (ip), vehicle: saline",107 % of control
same,T/C,"dose: 0.75 mg/kg/injection, schedule: Q01DX Z (ip), vehicle: saline",109 % of control
same,T/C,"dose: 1.5 mg/kg/injection, schedule: Q01DX Z (ip), vehicle: saline",104 % of control
same,T/C,"dose: 3.0 mg/kg/injection, schedule: Q01DX Z (ip), vehicle: saline",112 % of control
Clc1ccc(C(c2ccccc2Cl)C(Cl)Cl)cc1 (stereo not given),T/C,"dose: 12.5 mg/kg/injection, schedule: Q01DX Z (sc), vehicle: steriod suspending solution",96 % of control
same,T/C,"dose: 25.0 mg/kg/injection, schedule: Q01DX Z (sc), vehicle: steriod suspending solution",96 % of control
same,T/C,"dose: 50.0 mg/kg/injection, schedule: Q01DX Z (sc), vehicle: steriod suspending solution",97 % of control
same,T/C,"dose: 100.0 mg/kg/injection, schedule: Q01DX Z (sc), vehicle: steriod suspending solution",92 % of control
CCCNc1ncnc2[nH]ncc12,T/C,"dose: 0.62 mg/kg/injection, schedule: Q01DX Z (ip), vehicle: water",95 % of control
same,T/C,"dose: 5.0 mg/kg/injection, schedule: Q01DX Z (ip), vehicle: water",94 % of control
c1ccc(CNc2ncnc3[nH]ncc23)cc1,T/C,[15],89 % of control
same,T/C,[8],90 % of control
same,T/C,[1],95 % of control
same,T/C,[16],101 % of control
C[C@]12CCC(=O)C[C@H]1CC[C@@H]1[C@@H]2CC[C@@]2(C)[C@H]1CC[C@]2(C)O,T/C,[9],106 % of control
same,T/C,[10],93 % of control
same,T/C,[11],98 % of control and 111 % of control
same,T/C,[12],111 % of control
same,T/C,[13],109 % of control
same,T/C,[14],109 % of control
same,T/C,"dose: 1000.0 mg/kg/injection, schedule: Q01DX Z (sc), vehicle: steriod suspending solution",98 % of control
CCOC(N)=O,T/C,"dose: 63.0 mg/kg/injection, schedule: Q01DX Z (ip), vehicle: saline",95 % of control
same,T/C,"dose: 93.75 mg/kg/injection, schedule: Q01DX Z (ip), vehicle: saline",109 % of control
same,T/C,"dose: 125.0 mg/kg/injection, schedule: Q01DX Z (ip), vehicle: saline",108 % of control
same,T/C,"dose: 250.0 mg/kg/injection, schedule: Q01DX Z (ip), vehicle: saline",95 % of control
same,T/C,"dose: 500.0 mg/kg/injection, schedule: Q01DX Z (ip), vehicle: saline",112 % of control
CS(=O)(=O)OCC(O)C(O)COS(C)(=O)=O (stereo not given),T/C,"dose: 187.5 mg/kg/injection, schedule: Q01DX Z (ip), vehicle: saline",96 % of control
same,T/C,"dose: 375.0 mg/kg/injection, schedule: Q01DX Z (ip), vehicle: saline",111 % of control
same,T/C,"dose: 750.0 mg/kg/injection, schedule: Q01DX Z (ip), vehicle: saline",102 % of control
COc1cc2c(c(OC)c1OC)-c1ccc(OC)c(=O)cc1[C@@H](NC(C)=O)CC2,T/C,"dose: 63.0 micrograms/kg/injection, schedule: Q01DX Z (ip), vehicle: saline",104 % of control
same,T/C,"dose: 125.0 micrograms/kg/injection, schedule: Q01DX Z (ip), vehicle: saline",101 % of control
same,T/C,"dose: 250.0 micrograms/kg/injection, schedule: Q01DX Z (ip), vehicle: saline",104 % of control
CCCCNc1ncnc2c1cnn2C,T/C,[15],86 % of control
same,T/C,[8],86 % of control
same,T/C,[1],96 % of control
same,T/C,[16],101 % of control
same,T/C,[3],93 % of control
O=c1cn[nH]c(=O)[nH]1,T/C,"dose: 187.5 mg/kg/injection, schedule: Q01DX Z (ip), vehicle: carboxymethylcellulose (CMC)",88 % of control
same,T/C,"dose: 375.0 mg/kg/injection, schedule: Q01DX Z (ip), vehicle: carboxymethylcellulose (CMC)",88 % of control
same,T/C,"dose: 750.0 mg/kg/injection, schedule: Q01DX Z (ip), vehicle: carboxymethylcellulose (CMC)",98 % of control
CN(C)c1ccc(/C=C/c2ccnc3ccccc23)cc1,T/C,"dose: 1.6 mg/kg/injection, schedule: Q01DX Z (ip), vehicle: carboxymethylcellulose (CMC)",94 % of control
same,T/C,"dose: 3.1 mg/kg/injection, schedule: Q01DX Z (ip), vehicle: carboxymethylcellulose (CMC)",89 % of control
same,T/C,[7],100 % of control
same,T/C,[17],90 % of control and 105 % of control
same,T/C,"dose: 12.5 mg/kg/injection, schedule: Q01DX Z (ip), vehicle: water",95 % of control
same,T/C,[18],92 % of control
same,T/C,"dose: 50.0 mg/kg/injection, schedule: Q01DX Z (ip), vehicle: carboxymethylcellulose (CMC)",118 % of control
CN(N=O)C(=O)NC(C=O)C(O)C(O)C(O)CO (stereo not given),T/C,"dose: 6.25 mg/kg/injection, schedule: Q01DX Z (ip), vehicle: saline",96 % of control
same,T/C,"dose: 12.5 mg/kg/injection, schedule: Q01DX Z (ip), vehicle: saline",112 % of control
same,T/C,"dose: 25.0 mg/kg/injection, schedule: Q01DX Z (ip), vehicle: saline",113 % of control
same,T/C,"dose: 100.0 mg/kg/injection, schedule: Q01DX Z (ip), vehicle: saline",151 % of control
COS(C)(=O)=O,T/C,[18],87 % of control
same,T/C,"dose: 50.0 mg/kg/injection, schedule: Q01DX Z (ip), vehicle: water",101 % of control
same,T/C,"dose: 100.0 mg/kg/injection, schedule: Q01DX Z (ip), vehicle: water",101 % of control
Nc1ncnc2[nH]ncc12,T/C,[17],89 % of control
same,T/C,"dose: 12.5 mg/kg/injection, schedule: Q01DX Z (ip), vehicle: carboxymethylcellulose (CMC)",92 % of control
